Measured values taken from patent publication US11591328B2 (XIAMEN BIOTIME BIOTECHNOLOGY CO., LTD., priority 2018, dated 2023).

How the values were obtained:
FLT-3 = FLT-3 (Homo sapiens (Human), UniProt P36888); assay: FLT-3 kinase activity test (Caliper mobility shift assay); format: biochemical
Experimental: (§1) Caliper mobility shift assay was used to determine the kinase activities of c-Kit, PDGFRα, PDGFRβ, and FLT-3.
(§2) The final concentration of the kinase and its corresponding substrate (ATP and peptide substrate P2 or P22) during the experiment is as follows:
(§3) Add 5 μL of compound (10% DMSO) at 5 times the final concentration of the reaction to a 384-well plate. Add 10 μL of 2.5×enzyme solution and incubate for 10 minutes at room temperature, then add 10 μL of 2.5×substrate (ATP and peptide substrate, P2 or P22). After incubating at 28° C. for 60 minutes, add 25 μL stop solution to stop the reaction. Read conversion rate data on Caliper EZ Reader II (Caliper Life Sciences). Convert the conversion rate into inhibition rate data (% inhibition rate=(max−sample conversion rate)/(max−min)×100). Where max refers to the conversion rate of the DMSO control, and min refers to the conversion rate of the control without enzyme activity. Draw a curve with compound concentration and inhibition rate on the abscissa and ordinate, use XLFit excel add-in version 4.3.1 software to fit the curve and calculate IC50.

[1] = Pharmacokinetic evaluation in CD-1 mice, gavage; format: in vivo; settings: 10 mg/kg, plasma; for bioavailability / Cmax / half-life: mouse, po; for half-life: read-out: T½ (converted)
From the text: Using mice as the test animals, the LC/MS/MS method was used to determine that the mice were intragastrically administered the compound of Example 1, the compound of Example 2, the compound of Example 3, the compound of Example 4, the compound of Example 10, and the compound of Example 14. Compound, the concentration of the drug in the plasma at different times after the compound of Example 26. Study the pharmacokinetic behavior of the compound of the present invention in mice and evaluate its pharmacokinetic characteristics.
The test animals were CD-1 mice, purchased from Shanghai Slack Laboratory Animal Co., Ltd.
Weigh a certain amount of drug, add 5% volume of DMSO or DMAc, 5% volume of PEG400 and 90% volume of normal saline to prepare 1.0 mg/mL colorless, clear and transparent liquid or uniformly dispersed suspension.
CD-1 mice were fasted overnight and then administered by gavage. The dosage was 10 mg/kg and the dosage was 10 mL/kg.
Gavage the mice before and after administration at 0.25, 0.5, 1.0, 2.0, 4.0, 6.0, 8.0, 24.0 hours to collect 0.1 mL of blood, place it in a K2-EDTA anticoagulation tube, and centrifuge at 3500 rpm for 10 minutes. Plasma, stored at −20° C.
To determine the content of the test compound in mouse plasma after gavage of different concentrations of drugs: take 20 uL of mouse plasma at each moment after administration, add propranolol and tolbutamide (each 100 ng/mL) 200 uL of acetonitrile solution, vortex for 5 minutes, centrifuge for 12 minutes (4000 rpm), and take 5 uL of the supernatant from the plasma sample for LC/MS/MS analysis.

PDGFRβ = PDGFRβ (Homo sapiens (Human), UniProt P09619); assay: PDGFRβ kinase activity test (Caliper mobility shift assay); format: biochemical
PDGFRβ, sequence (P09619 33-1106): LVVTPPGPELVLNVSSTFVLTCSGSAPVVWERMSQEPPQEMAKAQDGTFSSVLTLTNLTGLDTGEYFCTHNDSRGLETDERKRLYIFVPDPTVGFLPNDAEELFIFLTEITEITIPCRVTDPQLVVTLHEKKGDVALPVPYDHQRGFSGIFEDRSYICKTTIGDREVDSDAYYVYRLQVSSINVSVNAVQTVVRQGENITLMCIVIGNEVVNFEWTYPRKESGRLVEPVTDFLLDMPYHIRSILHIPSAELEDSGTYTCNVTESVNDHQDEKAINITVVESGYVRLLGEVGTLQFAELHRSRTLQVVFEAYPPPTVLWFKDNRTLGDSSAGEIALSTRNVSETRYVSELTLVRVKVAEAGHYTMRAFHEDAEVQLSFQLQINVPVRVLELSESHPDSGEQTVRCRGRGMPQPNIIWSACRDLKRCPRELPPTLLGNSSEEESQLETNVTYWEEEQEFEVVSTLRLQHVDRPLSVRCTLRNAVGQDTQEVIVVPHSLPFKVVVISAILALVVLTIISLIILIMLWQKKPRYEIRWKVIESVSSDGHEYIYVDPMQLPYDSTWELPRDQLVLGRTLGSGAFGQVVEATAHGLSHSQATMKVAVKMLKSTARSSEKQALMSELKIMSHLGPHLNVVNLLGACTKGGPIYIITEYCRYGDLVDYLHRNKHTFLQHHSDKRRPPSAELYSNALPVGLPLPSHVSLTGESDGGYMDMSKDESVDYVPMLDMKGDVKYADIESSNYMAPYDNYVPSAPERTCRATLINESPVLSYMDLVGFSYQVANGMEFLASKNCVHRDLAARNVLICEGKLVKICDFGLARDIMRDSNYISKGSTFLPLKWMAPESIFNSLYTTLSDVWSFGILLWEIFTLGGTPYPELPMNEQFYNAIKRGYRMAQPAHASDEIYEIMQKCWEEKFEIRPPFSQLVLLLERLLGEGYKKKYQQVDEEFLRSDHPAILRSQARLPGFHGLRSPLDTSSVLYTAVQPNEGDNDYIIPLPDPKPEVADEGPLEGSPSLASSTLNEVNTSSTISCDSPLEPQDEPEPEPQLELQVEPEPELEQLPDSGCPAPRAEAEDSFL
Experimental: as §1, §2, §3

c-Kit = c-Kit (Homo sapiens (Human), UniProt P10721); assay: c-Kit kinase activity test (Caliper mobility shift assay); format: biochemical
c-Kit, sequence (P10721 26-976): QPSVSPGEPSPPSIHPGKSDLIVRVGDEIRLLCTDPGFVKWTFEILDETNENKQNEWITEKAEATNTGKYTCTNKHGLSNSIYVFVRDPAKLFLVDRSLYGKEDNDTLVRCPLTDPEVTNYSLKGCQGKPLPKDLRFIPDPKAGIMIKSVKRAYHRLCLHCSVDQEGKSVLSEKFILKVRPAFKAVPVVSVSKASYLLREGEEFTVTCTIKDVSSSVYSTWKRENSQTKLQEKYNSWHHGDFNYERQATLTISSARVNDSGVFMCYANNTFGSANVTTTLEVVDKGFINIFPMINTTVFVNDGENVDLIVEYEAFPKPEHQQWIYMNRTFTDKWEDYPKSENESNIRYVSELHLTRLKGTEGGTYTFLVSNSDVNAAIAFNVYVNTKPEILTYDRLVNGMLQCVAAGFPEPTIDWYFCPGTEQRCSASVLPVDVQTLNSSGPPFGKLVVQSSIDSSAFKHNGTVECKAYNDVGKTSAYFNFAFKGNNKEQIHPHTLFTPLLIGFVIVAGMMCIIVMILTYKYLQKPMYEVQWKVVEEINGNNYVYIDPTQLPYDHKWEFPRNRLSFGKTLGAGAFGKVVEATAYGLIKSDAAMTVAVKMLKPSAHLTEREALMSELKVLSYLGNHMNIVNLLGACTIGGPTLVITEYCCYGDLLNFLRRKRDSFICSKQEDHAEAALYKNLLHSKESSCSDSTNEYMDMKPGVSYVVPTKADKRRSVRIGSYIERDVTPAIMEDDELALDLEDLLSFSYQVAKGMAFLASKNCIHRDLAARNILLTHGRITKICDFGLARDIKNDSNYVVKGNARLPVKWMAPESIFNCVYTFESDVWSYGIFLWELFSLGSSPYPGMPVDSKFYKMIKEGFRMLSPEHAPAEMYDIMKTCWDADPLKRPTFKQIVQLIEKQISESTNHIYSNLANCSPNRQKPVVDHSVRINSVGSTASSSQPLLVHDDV
Experimental: as §1, §2, §3

CSF1R = CSF1R (Homo sapiens (Human), UniProt P07333); assay: CSF1R kinase activity test (HTRF); format: biochemical; settings: ATP 8 μM
CSF1R, sequence (P07333 20-972, species assumed): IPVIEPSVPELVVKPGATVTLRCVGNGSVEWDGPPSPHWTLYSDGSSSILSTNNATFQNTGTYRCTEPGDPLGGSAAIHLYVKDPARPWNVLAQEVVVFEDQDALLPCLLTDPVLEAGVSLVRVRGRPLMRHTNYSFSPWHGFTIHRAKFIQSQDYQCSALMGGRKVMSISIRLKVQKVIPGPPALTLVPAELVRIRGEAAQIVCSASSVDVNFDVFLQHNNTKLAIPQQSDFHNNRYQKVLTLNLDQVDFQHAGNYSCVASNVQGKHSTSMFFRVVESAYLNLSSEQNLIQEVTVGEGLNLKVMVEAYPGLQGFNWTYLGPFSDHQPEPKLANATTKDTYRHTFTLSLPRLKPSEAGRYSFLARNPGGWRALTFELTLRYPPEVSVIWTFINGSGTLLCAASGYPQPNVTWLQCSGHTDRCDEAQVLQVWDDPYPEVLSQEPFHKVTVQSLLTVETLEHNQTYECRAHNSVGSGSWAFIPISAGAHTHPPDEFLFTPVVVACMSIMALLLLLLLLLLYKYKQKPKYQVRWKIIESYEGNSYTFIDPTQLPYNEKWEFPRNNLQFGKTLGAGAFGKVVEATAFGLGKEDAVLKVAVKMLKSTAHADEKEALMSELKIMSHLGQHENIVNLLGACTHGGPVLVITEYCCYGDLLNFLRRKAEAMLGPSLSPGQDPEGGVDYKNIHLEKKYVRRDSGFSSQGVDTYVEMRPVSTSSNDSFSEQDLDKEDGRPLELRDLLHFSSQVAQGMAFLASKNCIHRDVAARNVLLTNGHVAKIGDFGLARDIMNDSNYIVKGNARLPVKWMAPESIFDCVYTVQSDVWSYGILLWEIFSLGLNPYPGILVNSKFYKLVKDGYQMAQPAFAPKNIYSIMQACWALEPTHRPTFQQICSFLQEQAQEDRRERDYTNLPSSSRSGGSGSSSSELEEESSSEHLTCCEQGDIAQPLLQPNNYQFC
Experimental: In a 384-well plate, add 10 nL of the test compound to each well with the Echo 550 sample loading device. […] Use this buffer to adjust the concentration of CSF1R to 0.02 ng/ul. Add 5 μL of buffer containing CSF1R to the 384-well plate after centrifugation at 1000 g for 30 seconds and incubate at room temperature for 10 minutes. […] The inhibition rate of each point is obtained by the following formula: […]
Wherein, Ratiopositive: the experimental positive control None; Ratiovehicle: is the test value of 0.1% DMSO. With the compound concentration and inhibition rate on the abscissa and ordinate, the curve was drawn, and the curve was fitted with Graphpad 5.0 software and the IC50 was calculated.

FMS = FMS (Homo sapiens (Human), UniProt P07333)
FMS, sequence (P07333 20-972): as the sequence (P07333 20-972, species assumed) above
Experimental: Place the culture plate in a cell incubator and incubate for 4 hours. […] Add the diluted recombinant human MCSF to a 24-well plate at 100 μL per well, mix quickly and incubate in an incubator for 4 minutes.

FLT-3, sequence (P36888 27-993): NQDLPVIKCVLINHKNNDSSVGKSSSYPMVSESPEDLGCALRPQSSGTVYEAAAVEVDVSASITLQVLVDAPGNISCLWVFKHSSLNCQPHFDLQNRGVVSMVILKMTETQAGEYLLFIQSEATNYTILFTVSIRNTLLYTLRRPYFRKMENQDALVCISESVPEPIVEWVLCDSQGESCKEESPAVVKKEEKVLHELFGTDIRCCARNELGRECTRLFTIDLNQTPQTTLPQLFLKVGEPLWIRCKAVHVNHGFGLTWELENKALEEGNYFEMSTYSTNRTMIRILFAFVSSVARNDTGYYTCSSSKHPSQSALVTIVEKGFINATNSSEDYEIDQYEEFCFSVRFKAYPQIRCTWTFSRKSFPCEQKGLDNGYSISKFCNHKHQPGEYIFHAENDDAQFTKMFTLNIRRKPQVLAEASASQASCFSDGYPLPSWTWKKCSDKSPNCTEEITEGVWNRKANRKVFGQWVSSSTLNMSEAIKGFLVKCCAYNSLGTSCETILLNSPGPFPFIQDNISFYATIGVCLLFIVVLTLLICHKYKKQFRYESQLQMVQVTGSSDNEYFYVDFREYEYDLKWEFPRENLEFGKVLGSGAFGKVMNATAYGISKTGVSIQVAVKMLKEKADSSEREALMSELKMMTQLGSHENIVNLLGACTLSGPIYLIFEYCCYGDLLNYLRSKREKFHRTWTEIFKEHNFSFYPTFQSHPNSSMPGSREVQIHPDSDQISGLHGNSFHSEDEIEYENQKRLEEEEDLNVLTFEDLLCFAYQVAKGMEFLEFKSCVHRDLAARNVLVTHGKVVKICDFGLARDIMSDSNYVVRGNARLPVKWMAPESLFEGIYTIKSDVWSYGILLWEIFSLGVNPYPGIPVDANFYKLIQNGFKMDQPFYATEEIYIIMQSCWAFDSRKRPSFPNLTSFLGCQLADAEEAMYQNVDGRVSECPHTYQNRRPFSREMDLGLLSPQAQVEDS

For `Cn1cc(-c2cc(Oc3ccc(NC(=O)N4CCC5(CCC5)C4=O)nc3)ccn2)cn1` [Compound 1], which IC50 (FLT-3) is on record?
The IC50 was greater than 10000 nM.

What about the AUC [1] of the same compound?
The AUC was 26600 ng·h/mL.

And the bioavailability [1]?
The bioavailability was 100%.

And the Cmax [1]?
The Cmax was 3390 ng/mL.

And the half-life [1]?
The half-life was 2.73 h.

What about the IC50 (PDGFRβ) of the same compound?
Its IC50 is 2860 nM.

And the IC50 (c-Kit)?
The IC50 was 3.5 nM.

For `Cn1cc(-c2cc(Oc3ccc(NC(=O)N4CCC5(CCCCC5)C4=O)nc3)ccn2)cn1` [Compound 2], which AUC [1] is on record?
The AUC was 6100 ng·h/mL.

What about the bioavailability [1] of the same compound?
Its bioavailability is 71.5%.

What about the Cmax [1] of the same compound?
Its Cmax is 860 ng/mL.

And the half-life [1]?
Its half-life is 3.14 h.

And the IC50 (CSF1R)?
Its IC50 is 6.2 nM.

And the IC50 (PDGFRβ)?
Its IC50 is 1580 nM.

And the IC50 (c-Kit)?
Its IC50 is 5.4 nM.

With `Cn1cc(-c2cc(Oc3ccc(NC(=O)N4CCC5(CCCC5)C4=O)nc3)ccn2)cn1` [Compound 3] as the compound, how does the AUC [1] read?
The AUC was 15800 ng·h/mL.

What about the bioavailability [1] of the same compound?
The bioavailability was 89.5%.

And the Cmax [1]?
Its Cmax is 3200 ng/mL.

What about the half-life [1] of the same compound?
Its half-life is 3.3 h.

And the IC50 (CSF1R)?
The IC50 was 1.1 nM.

What about the IC50 (PDGFRβ) of the same compound?
Its IC50 is 1620 nM.

And the IC50 (c-Kit)?
Its IC50 is 2.6 nM.

For `Cn1cc(-c2cc(Oc3ccc(NC(=O)N4CCC5(CCC(F)(F)CC5)C4=O)nc3)ccn2)cn1` [Compound 4], which IC50 (FLT-3) is on record?
The IC50 was greater than 10000 nM.

What about the AUC [1] of the same compound?
The AUC was 38800 ng·h/mL.

What about the bioavailability [1] of the same compound?
Its bioavailability is 100%.

And the Cmax [1]?
The Cmax was 5270 ng/mL.

And the half-life [1]?
The half-life was 2.64 h.

And the IC50 (PDGFRβ)?
The IC50 was 783 nM.

And the IC50 (c-Kit)?
Its IC50 is 16 nM.

For `Cn1cc(-c2cc(Oc3ccc(NC(=O)N4CCC5(CCOCC5)C4=O)nc3)ccn2)cn1` [Compound 5], which IC50 (CSF1R) is on record?
Its IC50 is 9.1 nM.

For `Cn1cc(-c2cc(Oc3ccc(NC(=O)N4CCC5(CCCCC5(F)F)C4=O)nc3)ccn2)cn1` (stereo not shown) [Compound 6], which IC50 (CSF1R) is on record?
The IC50 was 5.4 nM.

Which IC50 (CSF1R) does the source give for `Cn1cc(-c2cc(Oc3ccc(NC(=O)N4CCC5(CCCO5)C4=O)nc3)ccn2)cn1` (stereo not shown) [Compound 7] here?
Its IC50 is 2.7 nM.

Which IC50 (CSF1R) does the source give for `Cn1cc(-c2cc(Oc3ccc(NC(=O)N4CCC5(CCCC5(F)F)C4=O)nc3)ccn2)cn1` (stereo not shown) [Compound 8] here?
The IC50 was 2.3 nM.

Which IC50 (CSF1R) does the source give for `Cn1cc(-c2cc(Oc3ccc(NC(=O)N4CCC5(CCCCC5F)C4=O)nc3)ccn2)cn1` (stereo not shown) [Compound 9] here?
Its IC50 is 2.1 nM.

For `Cn1cc(-c2cc(Oc3ccc(NC(=O)N4CCC5(CC5)C4=O)nc3)ccn2)cn1` [Compound 10], which AUC [1] is on record?
The AUC was 21300 ng·h/mL.

And the bioavailability [1]?
The bioavailability was 64%.

What about the Cmax [1] of the same compound?
Its Cmax is 2240 ng/mL.

And the half-life [1]?
Its half-life is 5.18 h.

And the IC50 (CSF1R)?
The IC50 was 0.55 nM.

And the EC50 (FMS)?
Its EC50 is 4 nM.

With `Cn1cc(-c2cc(Oc3ccc(NC(=O)N4CCC5(CCNCC5)C4=O)nc3)ccn2)cn1` [Compound 11] as the compound, how does the IC50 (CSF1R) read?
Its IC50 is 300 nM.

Which IC50 (CSF1R) does the source give for `CC(=O)N1CCC2(CC1)CCN(C(=O)Nc1ccc(Oc3ccnc(-c4cnn(C)c4)c3)cn1)C2=O` [Compound 12] here?
Its IC50 is 171 nM.

Which IC50 (CSF1R) does the source give for `Cn1cc(-c2cc(Oc3ccc(NC(=O)N4CCC5(CCN(S(C)(=O)=O)CC5)C4=O)nc3)ccn2)cn1` [Compound 13] here?
The IC50 was 25 nM.

With `Cc1nc(NC(=O)N2CCC3(CCC(F)(F)CC3)C2=O)ccc1Oc1ccnc(-c2cnn(C)c2)c1` [Compound 14] as the compound, how does the IC50 (FLT-3) read?
The IC50 was greater than 10000 nM.

And the AUC [1]?
Its AUC is 20300 ng·h/mL.

And the bioavailability [1]?
Its bioavailability is 67.3%.

What about the Cmax [1] of the same compound?
The Cmax was 1400 ng/mL.

And the half-life [1]?
Its half-life is 5.91 h.

And the IC50 (PDGFRβ)?
Its IC50 is greater than 10000 nM.

What about the IC50 (c-Kit) of the same compound?
The IC50 was 17 nM.

Which results are given for `Cc1nc(NC(=O)N2CCC3(CCC3)C2=O)ccc1Oc1ccnc(-c2cnn(C)c2)c1` [Compound 15]?
IC50 (FLT-3): > 10000 nM; IC50 (PDGFRβ): > 10000 nM; IC50 (c-Kit): 29 nM

For `CCc1nc(NC(=O)N2CCC3(CCC(F)(F)CC3)C2=O)ccc1Oc1ccnc(-c2cnn(C)c2)c1` [Compound 16], which IC50 (CSF1R) is on record?
The IC50 was 6.4 nM.

With `Cn1cc(-c2cc(Oc3ccc(NC(=O)N4CCC5(CCCC(O)C5)C4=O)nc3)ccn2)cn1` (stereo not shown) [Compound 17] as the compound, how does the IC50 (CSF1R) read?
Its IC50 is 6.5 nM.

What does the source list for `Cn1cc(-c2cc(Oc3ccc(NC(=O)N4CCC5(CCCC(F)(F)C5)C4=O)nc3)ccn2)cn1` (stereo not shown) [Compound 18]?
IC50 (FLT-3): 8630 nM; IC50 (PDGFRβ): 343 nM; IC50 (c-Kit): 8.4 nM

With `Cn1cc(-c2cc(Oc3ccc(NC(=O)N4CCC5(CCC(=O)C5)C4=O)nc3)ccn2)cn1` (stereo not shown) [Compound 19] as the compound, how does the IC50 (FLT-3) read?
The IC50 was greater than 10000 nM.

And the IC50 (PDGFRβ)?
Its IC50 is 719 nM.

And the IC50 (c-Kit)?
The IC50 was 11 nM.

For `O=C(Nc1ccc(Oc2ccnc(-c3cn[nH]c3)c2)cn1)N1CCC2(CCC(F)(F)CC2)C1=O` [Compound 21], which IC50 (PDGFRβ) is on record?
The IC50 was 7450 nM.

What about the IC50 (c-Kit) of the same compound?
Its IC50 is 10.1 nM.

With `CN1CCC(c2ccc(-c3cc(Oc4ccc(NC(=O)N5CCC6(CCC(F)(F)CC6)C5=O)nc4)ccn3)cc2)CC1` [Compound 22] as the compound, how does the IC50 (CSF1R) read?
Its IC50 is 6.7 nM.

For `Cc1ncc(-c2cc(Oc3ccc(NC(=O)N4CCC5(CCC(F)(F)CC5)C4=O)nc3)ccn2)s1` [Compound 23], which IC50 (CSF1R) is on record?
The IC50 was 5.3 nM.

For `Cn1cc(-c2cc(Oc3ccc(NC(=O)N4CCC5(CCCC(F)(F)C5)C4=O)nc3)ccn2)cn1` (stereo not shown) [Compound 24], which IC50 (c-Kit) is on record?
Its IC50 is 20 nM.

With `Cn1cc(-c2cc(Oc3ccc(NC(=O)N4CCC5(CCC(F)(F)C5)C4=O)nc3)ccn2)cn1` (stereo not shown) [Compound 25] as the compound, how does the IC50 (c-Kit) read?
Its IC50 is 5 nM.

Which results are given for `Cn1cc(-c2cc(Oc3ccc(NC(=O)N4CCC5(CC(F)(F)C5)C4=O)nc3)ccn2)cn1` [Compound 26]?
IC50 (FLT-3): > 10000 nM; AUC [1]: 48300 ng·h/mL; bioavailability [1]: 79%; Cmax [1]: 4490 ng/mL; half-life [1]: 6.72 h; IC50 (PDGFRβ): 2810 nM; IC50 (c-Kit): 4.5 nM
